Test results: patent publication US6153429A (priority 1997, dated 2000)

Assays:
in vitro = details: mouse, c3h/10t1/2 t1 cells
[1] = background statement, chemicals identified by IARC; cited from earlier work

Structure (SMILES)	fold induction at 504 h (in vitro)	mutagenicity [1]
c1ccc2c(c1)cc1ccc3cccc4ccc2c1c34 [Benzo[a]pyrene, benzo[a]pyrene]	1.15	–
CC/C(=C(/CC)c1ccc(O)cc1)c1ccc(O)cc1 [Diethylstilbestroel, diethylstilbestroel]	1.12	only weakly mutagenic
C=C(C)C12OC3(c4ccccc4)OC1C1C4OC4(CO)C(O)C4(O)C(=O)C(C)=CC4C1(O3)C(C)C2OC(=O)/C=C/C=C/c1ccccc1 (stereo not drawn) [Mezerein, mezerein]	2	–
Cn1c(=O)c2c(ncn2C)n(C)c1=O [caffeine]	1	–
C1CCOC1 [tetrahydrofuran]	1	–
